Peptide text beside a SMILES is read from it.
Assays:
Format in all cases: cell-based
[1] = target: T1, PrRPR Q141A (Homo sapiens, UniProt P49683, Q141A); test: BRET2 Gq dissociation, Q141A; details: Q141A (3.32), Gq-coupling, AD293 cells; mean ± S.E.M., n = 3; P 0.0059 vs WT; read-out: BRET2 pEC50 (converted)
T1 construct: expressed in transfected cells; host or cells: AD293 cells
Protocol: (§1) AD293 cells (Agilent) were propagated in Dulbecco’s Modified Eagle Medium (DMEM, Thermo Fisher Scientific), enriched with 10% fetal bovine serum (FBS, Thermo Fisher Scientific), and maintained at 37 °C in a 5% CO2 environment. Cells were then seeded in 6-well dishes at a density of 130,000–150,000 cells per mL and allowed to incubate overnight. On the next day, cells were transfected with plasmids at a 1:1:1:1 ratio for receptor:Gα-RLuc8:Gβ:Gγ-GFP2[52]. PEI MAX 40 K (BIOHUB) was utilized to form complex with the plasmids at a ratio of 3 µL PEI per µg of plasmids, in OptiMEM (Gibco-Thermo Fisher Scientific) at a concentration of 10 ng plasmids per µL OptiMEM. After 24 h of incubation, the culture was harvested by centrifugation with PBS. The cell suspension was then allocated into a white 384-well plate at a volume of 30 µL per well, followed by the addition of 10 µL of freshly prepared 50 µM coelenterazine 400a (Yeasen). […] Plates were subsequently read in a BioTek Synergy H1 microplate reader (BioTek) equipped with 395 nm (RLuc8-coelenterazine 400a) and 510 nm (GFP2) emission filters. BRET2 ratios were calculated as the ratio of the GFP2 emission to RLuc8 emission. […]
(§2) Supplementary Fig. S4 | Effects of mutations in the ligand-binding pocket and G protein intereface of Gq coupled PrRPR by BRET2 assay. […] BRET2 assay signals were measured after stimulation with PrRP20. […]

[2] = target: T2, PrRPR Y120A (Homo sapiens, UniProt P49683, Y120A); test: BRET2 Gq dissociation, Y120A; details: Y120A (2.64), Gq-coupling, AD293 cells; mean ± S.E.M., n = 3; P <0.0001 vs WT; read-out: BRET2 pEC50 (converted)
T2 construct: expressed in transfected cells; host or cells: AD293 cells
T2 sequence (P49683 whole entry Y120A): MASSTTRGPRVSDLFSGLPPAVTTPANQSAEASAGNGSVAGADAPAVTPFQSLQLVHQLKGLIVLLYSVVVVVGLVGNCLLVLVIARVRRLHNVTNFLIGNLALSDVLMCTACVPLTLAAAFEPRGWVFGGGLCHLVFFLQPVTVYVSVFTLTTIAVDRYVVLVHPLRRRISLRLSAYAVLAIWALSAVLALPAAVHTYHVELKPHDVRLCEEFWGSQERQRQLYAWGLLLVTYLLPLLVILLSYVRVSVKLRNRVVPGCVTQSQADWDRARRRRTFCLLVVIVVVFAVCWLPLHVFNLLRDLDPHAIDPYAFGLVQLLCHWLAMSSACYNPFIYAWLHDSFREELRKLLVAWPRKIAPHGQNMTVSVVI
Protocol: as §1, §2

[3] = target: T3, PrRPR L229A (Homo sapiens, UniProt P49683, L229A); test: BRET2 Gi dissociation, L229A; details: L229A (5.42), Gi-coupling, AD293 cells; mean ± S.E.M., n = 3; P <0.0001 vs WT; read-out: BRET2 pEC50 (converted)
T3 construct: Flag; expressed in transfected cells; host or cells: AD293 cells
T3 sequence (P49683 whole entry L229A): as the sequence (P49683 whole entry Y120A) above, with A120Y, L229A counted along it
Protocol: (§3) AD293 cells (Agilent) were propagated in Dulbecco’s Modified Eagle Medium (DMEM, Thermo Fisher Scientific), enriched with 10% fetal bovine serum (FBS, Thermo Fisher Scientific), and maintained at 37 °C in a 5% CO2 environment. Cells were then seeded in 6-well dishes at a density of 130,000–150,000 cells per mL and allowed to incubate overnight. On the next day, cells were transfected with plasmids at a 1:1:1:1 ratio for receptor:Gα-RLuc8:Gβ:Gγ-GFP2[52]. PEI MAX 40 K (BIOHUB) was utilized to form complex with the plasmids at a ratio of 3 µL PEI per µg of plasmids, in OptiMEM (Gibco-Thermo Fisher Scientific) at a concentration of 10 ng plasmids per µL OptiMEM. After 24 h of incubation, the culture was harvested by centrifugation with PBS. The cell suspension was then allocated into a white 384-well plate at a volume of 30 µL per well, followed by the addition of 10 µL of freshly prepared 50 µM coelenterazine 400a (Yeasen). Following a 15-min equilibration period, cells were treated with 10 µL of ligand for an additional 5 min. Plates were subsequently read in a BioTek Synergy H1 microplate reader (BioTek) equipped with 395 nm (RLuc8-coelenterazine 400a) and 510 nm (GFP2) emission filters. BRET2 ratios were calculated as the ratio of the GFP2 emission to RLuc8 emission. Data were normalized to the baseline response of the ligand. […]

[4] = target: T4, PrRPR T117A (Homo sapiens, UniProt P49683, T117A); test: BRET2 Gi dissociation, T117A; details: T117A (2.61), Gi-coupling, AD293 cells; mean ± S.E.M., n = 3; P <0.0001 vs WT; read-out: BRET2 pEC50 (converted)
T4 construct: expressed in transfected cells; host or cells: AD293 cells
T4 sequence (P49683 whole entry T117A): as the sequence (P49683 whole entry Y120A) above, with T117A, A120Y counted along it
Protocol: as §3

[5] = target: T5, PrRPR L210A (Homo sapiens, UniProt P49683, L210A); test: BRET2 Gq dissociation, L210A; details: L210A (ECL2), Gq-coupling, AD293 cells; mean ± S.E.M., n = 3; P <0.0001 vs WT; read-out: BRET2 pEC50 (converted)
T5 construct: expressed in transfected cells; host or cells: AD293 cells
T5 sequence (P49683 whole entry L210A): as the sequence (P49683 whole entry Y120A) above, with A120Y, L210A counted along it
Protocol: as §1, §2

[6] = target: T6, PrRPR D302A (Homo sapiens, UniProt P49683, D302A); test: BRET2 Gq dissociation, D302A; details: D302A (6.59), Gq-coupling, AD293 cells; mean ± S.E.M., n = 3; P <0.0001 vs WT; read-out: BRET2 pEC50 (converted)
T6 construct: Flag; expressed in transfected cells; host or cells: AD293 cells
T6 sequence (P49683 whole entry D302A): as the sequence (P49683 whole entry Y120A) above, with A120Y, D302A counted along it
Protocol: as §1, §2

[7] = target: T7, PrRPR V145A (Homo sapiens, UniProt P49683, V145A); test: BRET2 Gi dissociation, V145A; details: V145A (3.36), Gi-coupling, AD293 cells; mean ± S.E.M., n = 3; P 0.9852 vs WT; read-out: BRET2 pEC50 (converted)
T7 construct: expressed in transfected cells; host or cells: AD293 cells
T7 sequence (P49683 whole entry V145A): as the sequence (P49683 whole entry Y120A) above, with A120Y, V145A counted along it
Protocol: as §3

[8] = target: T4, PrRPR T117A; test: BRET2 Gq dissociation, T117A; details: T117A (2.61), Gq-coupling, AD293 cells; mean ± S.E.M., n = 3; P <0.0001 vs WT; read-out: BRET2 pEC50 (converted)
Protocol: as §1, §2

[9] = target: T8, PrRPR E212A (Homo sapiens, UniProt P49683, E212A); test: BRET2 Gi dissociation, E212A; details: E212A (45.51), Gi-coupling, AD293 cells; mean ± S.E.M., n = 3; P <0.0001 vs WT; read-out: BRET2 pEC50 (converted)
T8 construct: expressed in transfected cells; host or cells: AD293 cells
T8 sequence (P49683 whole entry E212A): as the sequence (P49683 whole entry Y120A) above, with A120Y, E212A counted along it
Protocol: as §3

[10] = target: T9, PrRPR P142A (Homo sapiens, UniProt P49683, P142A); test: BRET2 Gq dissociation, P142A; details: P142A (3.33), Gq-coupling, AD293 cells; mean ± S.E.M., n = 3; P <0.0001 vs WT; read-out: BRET2 pEC50 (converted)
T9 construct: expressed in transfected cells; host or cells: AD293 cells
T9 sequence (P49683 whole entry P142A): as the sequence (P49683 whole entry Y120A) above, with A120Y, P142A counted along it
Protocol: as §1, §2

[11] = target: T9, PrRPR P142A; test: BRET2 Gi dissociation, P142A; details: P142A (3.33), Gi-coupling, AD293 cells; mean ± S.E.M., n = 3; P 0.0035 vs WT; read-out: BRET2 pEC50 (converted)
Protocol: as §3

[12] = target: T10, PrRPR Y225A (Homo sapiens, UniProt P49683, Y225A); test: BRET2 Gq dissociation, Y225A; details: Y225A (5.38), Gq-coupling, AD293 cells; mean ± S.E.M., n = 3; P <0.0001 vs WT; read-out: BRET2 pEC50 (converted)
T10 construct: Flag; expressed in transfected cells; host or cells: AD293 cells
T10 sequence (P49683 whole entry Y225A): as the sequence (P49683 whole entry Y120A) above, with A120Y, Y225A counted along it
Protocol: as §1, §2

T1 sequence (P49683 whole entry Q141A): as the sequence (P49683 whole entry Y120A) above, with A120Y, Q141A counted along it

EC50 [1]: 3.02 nM
EC50 [2]: 191 nM
EC50 [3]: 85.1 nM
EC50 [4]: 3.47 µM
EC50 [5]: 7.08 nM
EC50 [6]: 151 nM
EC50 [7]: 2.63 nM
EC50 [8]: 107 nM
EC50 [9]: 398 nM
EC50 [10]: 4.79 nM
EC50 [11]: 6.46 nM
EC50 [12]: 178 nM
SMILES: CC[C@H](C)[C@H](NC(=O)CNC(=O)[C@H](CCCNC(=N)N)NC(=O)[C@H](CO)NC(=O)[C@H](C)NC(=O)[C@H](Cc1ccc(O)cc1)NC(=O)[C@H](Cc1c[nH]c2ccccc12)NC(=O)[C@H](C)NC(=O)[C@@H]1CCCN1C(=O)[C@H](CC(N)=O)NC(=O)[C@@H](NC(=O)[C@H](CC(=O)O)NC(=O)[C@@H]1CCCN1C(=O)[C@@H](N)[C@@H](C)O)[C@@H](C)CC)C(=O)N[C@@H](CCCNC(=N)N)C(=O)N1CCC[C@H]1C(=O)N[C@H](C(=O)NCC(=O)N[C@@H](CCCNC(=N)N)C(=O)N[C@@H](Cc1ccccc1)C(N)=O)C(C)C [PrRP20] (H-TPDINPAWYASRGIRPVGRF-NH2)
